Measurements taken from ChEMBL document CHEMBL1201862, “PubChem BioAssay data set” (2004).
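Protocol summary: plate cells (96-well), add compound at 5 concentrations, incubate 48 h, interpolate endpoints linearly. GI50: concentration for 50% inhibition of growth.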 Active and inactive are the calls of the source. Rule as the data show it: active = GI50 up to about 1.1 µM and inactive = higher.

Assays:
Assay in all cases: NCI-60 cell line screen, 48 h
A549 = tested on: A549
BT-549 = tested on: BT-549
SK-MEL-28 = tested on: SK-MEL-28
TK-10 = tested on: TK-10
MDA-MB-231 = tested on: MDA-MB-231
RXF 393 = tested on: RXF 393
MCF7 = tested on: MCF7
UACC-257 = tested on: UACC-257
NCI-H23 = tested on: NCI-H23
DMS-114 = tested on: DMS-114
NCI/ADR-RES = tested on: NCI/ADR-RES
HCT-116 = tested on: HCT-116
NCI-H460 = tested on: NCI-H460
IGROV-1 = tested on: IGROV-1
SN12C = tested on: SN12C
M14 = tested on: M14
SNB-78 = tested on: SNB-78
DLD-1 = tested on: DLD-1
SK-OV-3 = tested on: SK-OV-3
NCI-H226 = tested on: NCI-H226
LOX IMVI = tested on: LOX IMVI
EKVX = tested on: EKVX
XF498 = tested on: XF498
M19-MEL = tested on: M19-MEL
HT-29 = tested on: HT-29
HOP-92 = tested on: HOP-92
HL-60 = tested on: HL-60
K562 = tested on: K562
UO-31 = tested on: UO-31
OVCAR-5 = tested on: OVCAR-5
HOP-62 = tested on: HOP-62
786-0 = tested on: 786-0
UACC-62 = tested on: UACC-62
RPMI-8226 = tested on: RPMI-8226
OVCAR-4 = tested on: OVCAR-4
SNB-19 = tested on: SNB-19
SK-MEL-2 = tested on: SK-MEL-2
HCT-15 = tested on: HCT-15
OVCAR-8 = tested on: OVCAR-8
HCC 2998 = tested on: HCC 2998
SF-268 = tested on: SF-268
PC-3 = tested on: PC-3
MDA-MB-435 = tested on: MDA-MB-435
Hs-578T = tested on: Hs-578T
MOLT-4 = tested on: MOLT-4
U-251 = tested on: U-251
A498 = tested on: A498
HOP-18 = tested on: HOP-18
Malme-3M = tested on: Malme-3M
CAKI-1 = tested on: CAKI-1
MDA-N = tested on: MDA-N
SF-295 = tested on: SF-295
ACHN = tested on: ACHN
T47D = tested on: T47D
SF-539 = tested on: SF-539
SK-MEL-5 = tested on: SK-MEL-5
SW-620 = tested on: SW-620
KM-20L2 = tested on: KM-20L2
DMS-273 = tested on: DMS-273
DU-145 = tested on: DU-145
CCRF-CEM = tested on: CCRF-CEM
OVCAR-3 = tested on: OVCAR-3
COLO 205 = tested on: COLO 205
SR = tested on: SR
KM12 = tested on: KM12
SNB-75 = tested on: SNB-75
NCI-H522 = tested on: NCI-H522
LXFL 529 = tested on: LXFL 529

Measured: GI50

CC(CN1CC(=O)NC(=O)C1)N1CC(=O)NC(=O)C1 (configuration not stated) [RAZOXANE]
100 µM: HCT-15
inactive: A549 32.9 µM | BT-549 385 µM | SK-MEL-28 522 µM | TK-10 168 µM | MDA-MB-231 171 µM | RXF 393 473 µM | MCF7 33.2 µM | UACC-257 535 µM | NCI-H23 213 µM | DMS-114 67.9 µM | NCI/ADR-RES 243 µM | HCT-116 104 µM | NCI-H460 11.1 µM | IGROV-1 289 µM | SN12C 112 µM | M14 217 µM | SNB-78 449 µM | DLD-1 245 µM | SK-OV-3 299 µM | NCI-H226 68.1 µM | LOX IMVI 212 µM | EKVX 209 µM | XF498 234 µM | M19-MEL 299 µM | HT-29 119 µM | HOP-92 211 µM | HL-60 53.1 µM | K562 188 µM | UO-31 349 µM | OVCAR-5 343 µM | HOP-62 54.7 µM | 786-0 98.9 µM | UACC-62 340 µM | RPMI-8226 254 µM | OVCAR-4 283 µM | SNB-19 313 µM | SK-MEL-2 399 µM | OVCAR-8 460 µM | HCC 2998 339 µM | SF-268 299 µM | PC-3 66.1 µM | MDA-MB-435 485 µM | Hs-578T 72.3 µM | MOLT-4 34.9 µM | U-251 201 µM | A498 157 µM | HOP-18 277 µM | Malme-3M 52.2 µM | CAKI-1 109 µM | MDA-N 182 µM | SF-295 127 µM | ACHN 242 µM | T47D 231 µM | SF-539 332 µM | SK-MEL-5 198 µM | SW-620 54.7 µM | KM-20L2 174 µM | DMS-273 513 µM | DU-145 160 µM | CCRF-CEM 35.5 µM | OVCAR-3 356 µM | COLO 205 22.5 µM | SR 155 µM | KM12 398 µM | SNB-75 306 µM | NCI-H522 90.8 µM

Sc1nnc(-c2ccnc(-c3nnc(S)[nH]3)c2)[nH]1
inactive: A549 > 100 µM | SK-MEL-28 > 100 µM | TK-10 > 100 µM | RXF 393 > 100 µM | UACC-257 > 100 µM | NCI-H23 > 100 µM | DMS-114 > 100 µM | HCT-116 > 100 µM | NCI-H460 > 100 µM | IGROV-1 > 100 µM | SN12C > 100 µM | M14 > 100 µM | SNB-78 > 100 µM | DLD-1 > 100 µM | SK-OV-3 > 100 µM | NCI-H226 > 100 µM | LOX IMVI > 100 µM | EKVX > 100 µM | XF498 > 79.1 µM | M19-MEL > 100 µM | HT-29 > 100 µM | HL-60 > 100 µM | K562 > 100 µM | UO-31 > 100 µM | OVCAR-5 > 100 µM | LXFL 529 > 100 µM | HOP-62 > 100 µM | 786-0 > 100 µM | UACC-62 > 100 µM | RPMI-8226 > 100 µM | OVCAR-4 > 100 µM | SNB-19 > 100 µM | SK-MEL-2 > 100 µM | OVCAR-8 > 100 µM | HCC 2998 > 100 µM | SF-268 > 100 µM | MOLT-4 > 100 µM | U-251 > 100 µM | A498 > 100 µM | HOP-18 > 100 µM | Malme-3M > 100 µM | CAKI-1 > 100 µM | SF-295 > 100 µM | ACHN > 100 µM | SF-539 > 100 µM | SK-MEL-5 > 100 µM | SW-620 > 100 µM | KM-20L2 > 100 µM | DMS-273 > 100 µM | CCRF-CEM > 100 µM | OVCAR-3 > 100 µM | COLO 205 > 100 µM | KM12 > 100 µM | NCI-H522 > 100 µM
> 100 µM: HCT-15
